Patent US12485075B2, “Particulates of polyphenolics and dispersions thereof” (priority 2020, dated 2025)

Tests used:
[1] = cited from earlier work
[2] = tested on: human skin explants; assay: Intracellular ROS scavenging activity assay, HEV exposure; format: cell-based; settings: HEV exposure 412 nm and 450 nm
Description: Intracellular Reactive Oxygen Species (ROS) Scavenging Activity Assays were conducted on human skin explants from donors of skin Phototype II. The skin explants were treated with, a non-fluorescent probe, 2′, 7′-Dichlorofluorescein diacetate (DCFHDA). […] DCFH-DA is taken up by cells by passive diffusion and DCFH-DA is deacetylated by cellular esterases to non-fluorescent DCFH, which is trapped within cells. The fluorescent 2′, 7′-dichlorofluorescein (DCF) is generated upon enzymatic reduction and subsequent oxidation by ROS. Fluorescence was measured and correlates to the test item's ability to scavenge ROS. The results are presented as percentage reduction of ROS relative to the level generated following UVA/UVB exposure of unprotected skin.

[3] = tested on: human skin explants; assay: Intracellular ROS scavenging activity assay, solar simulated UVA/UVB exposure; format: cell-based
Description: Intracellular Reactive Oxygen Species (ROS) Scavenging Activity Assays were conducted on human skin explants from donors of skin Phototype II. The skin explants were treated with, a non-fluorescent probe, 2′, 7′-Dichlorofluorescein diacetate (DCFHDA). After treatment, the skin explants were treated with the moisturizer compositions at a dose of 2 mg/cm^2 and exposed to solar simulated UVA/UVB at doses of 70 mJ/cm^2 in triplicate. DCFH-DA is taken up by cells by passive diffusion and DCFH-DA is deacetylated by cellular esterases to non-fluorescent DCFH, which is trapped within cells. The fluorescent 2′, 7′-dichlorofluorescein (DCF) is generated upon enzymatic reduction and subsequent oxidation by ROS. Fluorescence was measured and correlates to the test item's ability to scavenge ROS. The results are presented as percentage reduction of ROS relative to the level generated following UVA/UVB exposure of unprotected skin. The results of these studies are shown in the Table below and presented as percentage reduction in intracellular ROS relative to unprotected skin. […] These associated skin protective effects include but are not limited to suppressing lipid peroxidation in the skin, preventing or reducing the appearance of lines and wrinkles in skin, preventing loss of elasticity of skin, preventing thinning of skin, and preventing pigment darkening of skin.

| SMILES | solubility in bulk oils, such as soybean oil [1] [% by weigh] | reduction in ROS, result in words [2] | reduction in ROS, result in words [3] |
| --- | --- | --- | --- |
| C[C@@H]1O[C@@H](OC[C@H]2O[C@@H](Oc3c(-c4ccc(O)c(O)c4)oc4cc(O)cc(O)c4c3=O)[C@H](O)[C@@H](O)[C@@H]2O)[C@H](O)[C@H](O)[C@H]1O [Rutin, quercetin-3-O-rutinoside] | 0.1 |  |  |
| Cc1c(C)c2c(c(C)c1O)CCC(C)(CCCC(C)CCCC(C)CCCC(C)C)O2 (racemic) [DL-alpha-tocopherol] |  | no statistically significant reduction in ROS | statistically significant reduction in ROS |
